“Also recorded” adds a separate entry of the source.

In one experiment the test system is E. faecalis. Description: Kill or inhibit growth/proliferation; morphology, biofilm and growth disruption (Tables 5, 6). Further: test concentration or dose not given here. It counts as cell-based, Enterococcus faecalis. On the set-up: key: A: Peptide aggregates; B: Less hyphal formation; Clumps; Diffuse clumps and small polyps; F: Diffuse growth; H: Thin; I: Growth inhibition; Microcolony formation; Rippled; Small polyps; Thick; W: Halo formation on top, microlonies on bottom.

For the next experiment, the system named is MRSA. Described as above. It counts as cell-based, Methicillin-resistant Staphylococcus aureus. On the set-up: key: A: Peptide aggregates; B: Less hyphal formation; Clumps; Diffuse clumps and small polyps; F: Diffuse growth; H: Thin; I: Growth inhibition; Microcolony formation; Rippled; Small polyps; Thick; W: Halo formation on top, microlonies on bottom. Further: test concentration or dose not given here.

Another experiment concerns S. epidermidis. The description is as above. It counts as cell-based, Staphylococcus epidermidis. Details: key: A: Peptide aggregates; B: Less hyphal formation; Clumps; Diffuse clumps and small polyps; F: Diffuse growth; H: Thin; I: Growth inhibition; Microcolony formation; Rippled; Small polyps; Thick; W: Halo formation on top, microlonies on bottom.
The subject of the next experiment is S. pneumoniae. Described as above. Format: cell-based, Streptococcus pneumoniae. On the set-up: key: A: Peptide aggregates; B: Less hyphal formation; Clumps; Diffuse clumps and small polyps; F: Diffuse growth; H: Thin; I: Growth inhibition; Microcolony formation; Rippled; Small polyps; Thick; W: Halo formation on top, microlonies on bottom.
The subject of another experiment is C. jejuni. Described as above. It counts as cell-based, Campylobacter jejuni. Details: key: A: Peptide aggregates; B: Less hyphal formation; Clumps; Diffuse clumps and small polyps; F: Diffuse growth; H: Thin; I: Growth inhibition; Microcolony formation; Rippled; Small polyps; Thick; W: Halo formation on top, microlonies on bottom.
A further experiment has as its system E. coli. The experiment is described as above. It counts as cell-based, Escherichia coli. Details: key: A: Peptide aggregates; B: Less hyphal formation; Clumps; Diffuse clumps and small polyps; F: Diffuse growth; H: Thin; I: Growth inhibition; Microcolony formation; Rippled; Small polyps; Thick; W: Halo formation on top, microlonies on bottom. Further: test concentration or dose not given here.
Experiment [1] has as its system microorganisms (e.g., bacteria, yeasts, fungi). Description: Targeting peptide binding to target microorganisms (Table 3). The settings on record: preferably 1x PBS; for Target(s): microorganism(s) the targeting peptide binds.
In another experiment the test system is microorganisms. Description: Peptides having multiple activities (targeting/binding, antimicrobial, growth or phenotype altering). From the text: In certain embodiments, peptides described herein can have multiple activities. Thus for example, a peptide can have both binding/targeting activity and antimicrobial activity. Such peptides can be used, e.g., in a chimeric construct, for any or all of these properties. Thus, for example, a peptide designated “B” in Table 8 can be used as a targeting peptide. If it is also designated G or M it can also be used for antimicrobial activity.

The mark [2] stands for this setting: peptide binding conducted in aqueous buffers varied by peptide solubility.
Wherever Organism, effect is given: test concentration or dose not given here.

Take “PF-363: peptide having multiple activities (chain 1 SMLSVTVMCLMHASVAANQAMEKKV; chain 2 SMLSVTVMCLMHASVAANQAMEKKV; Peptide with targeting and/or antimicrobial activity)”: the “Organism, effect” value in the experiment on E. faecalis is given as “E. faecalis (D)”; in the experiment on MRSA it was “MRSA (H)”; in the experiment on S. epidermidis it was “S. epidermidis (S)”; in the experiment on S. pneumoniae, “S. pneumoniae (R)”; in the experiment on C. jejuni, “C. jejuni (D)”; in the experiment on E. coli it was “E. coli (C)”. Moreover, the “Target(s)” value in experiment [1] (binding in aqueous buffers depending on peptide solubility) is “B. subtilis; also recorded: E. coli; also recorded: P. aeruginosa; also recorded: C. albicans; also recorded: S. pneumoniae; also recorded: E. faecalis”. In addition, the Activities entry in the experiment on microorganisms is “G B”.

“PF-418: peptide having multiple activities (FFLVHFYIRKRKGKVSIFLNYF; Peptide with targeting and/or antimicrobial activity)”: the “Organism, effect” value in the experiment on E. faecalis is given as “E. faecalis (D)”; in the experiment on MRSA, “MRSA (D)”; in the experiment with S. epidermidis, “S. epidermidis (M)”; in the experiment with S. pneumoniae it was “S. pneumoniae (D)”; in the experiment on C. jejuni it was “C. jejuni (D)”; in the experiment with E. coli, “E. coli (C)”. Also, the Activities result with microorganisms is “G B”.

As for “PF-469: peptide having multiple activities (chain 1 YKVNYNNIDNHFNTLRH; chain 2 YKVNYNNIDNHFNTLRH; Peptide with targeting and/or antimicrobial activity)”, the “Organism, effect” value in the experiment on E. faecalis is reported as “E. faecalis (D)”; with MRSA it was “MRSA (D)”; with S. epidermidis, “S. epidermidis (D)”; with S. pneumoniae, “S. pneumoniae (D)”; in the experiment on C. jejuni, “C. jejuni (D)”; in the experiment with E. coli, “E. coli (C)”. Also, in the experiment on microorganisms, the Activities result is “G B”.

As for “PF-576: peptide having multiple activities (chain 1 AYSGELPEPLVRKMSKEQVRSVMGK; chain 2 AYSGELPEPLVRKMSKEQVRSVMGK; Peptide with targeting and/or antimicrobial activity)”, the “Organism, effect” value was “MRSA (R)” in the experiment on MRSA; “S. epidermidis (A)” with S. epidermidis; “S. pneumoniae (C)” with S. pneumoniae; “C. jejuni (C)” in the experiment on C. jejuni; “E. coli (A)” in the experiment with E. coli. Further, the “Target(s)” value in experiment [1] (setting [2]) is “M. luteus; also recorded: P. mirabilis; also recorded: E. coli; also recorded: P. aeruginosa; also recorded: C. albicans; also recorded: S. pneumoniae”. In addition, the Activities entry with microorganisms is given as “G B”.

As for “PF-586: peptide having multiple activities (FFNQANYFFKEF; Peptide with targeting and/or antimicrobial activity)”, the “Organism, effect” value in the experiment on E. faecalis was “E. faecalis (D)”; with MRSA, “MRSA (D)”; in the experiment with S. epidermidis, “S. epidermidis (C)”; in the experiment on S. pneumoniae, “S. pneumoniae (D)”; in the experiment with C. jejuni, “C. jejuni (D)”; in the experiment on E. coli it was “E. coli (C)”. For the same molecule, the Activities entry in the experiment with microorganisms is listed as “G B”.

With “PF-592: peptide having multiple activities (IMKNYKYFKLFIVKYALF; Peptide with targeting and/or antimicrobial activity)”, the “Organism, effect” value in the experiment on E. faecalis was “E. faecalis (D)”; in the experiment on MRSA it was “MRSA (D)”; in the experiment on S. epidermidis it was “S. epidermidis (M)”; in the experiment on S. pneumoniae, “S. pneumoniae (D)”; in the experiment with C. jejuni it was “C. jejuni (S)”; with E. coli, “E. coli (C)”. Further, the Activities entry with microorganisms is on record as “G B”.

In the case of “PF-595: peptide having multiple activities (LQNKIYELLYIKERSKLCS; Peptide with targeting and/or antimicrobial activity)”, the “Organism, effect” value is on record as “E. faecalis (D)” in the experiment on E. faecalis; “MRSA (D)” in the experiment with MRSA; “S. epidermidis (C)” in the experiment with S. epidermidis; “S. pneumoniae (R)” in the experiment on S. pneumoniae; “C. jejuni (D)” in the experiment with C. jejuni; “E. coli (C)” with E. coli. Also, in the experiment with microorganisms, the Activities entry is listed as “G B”.

In the case of “PF-596: peptide having multiple activities (SKMWDKILTILILILELIRELIKL; Peptide with targeting and/or antimicrobial activity)”, the “Organism, effect” value in the experiment with E. faecalis is given as “E. faecalis (D)”; with MRSA, “MRSA (D)”; in the experiment on S. epidermidis it was “S. epidermidis (D)”; in the experiment with S. pneumoniae, “S. pneumoniae (D)”; in the experiment with C. jejuni, “C. jejuni (D)”; in the experiment with E. coli, “E. coli (C)”. Besides, in the experiment on microorganisms, the Activities result is “G B”.

For the molecule “PF-607: peptide having multiple activities (YIESDPRKFDYIFGAIRDH; Peptide with targeting and/or antimicrobial activity)”, the “Organism, effect” value with E. faecalis is “E. faecalis (A)”; with MRSA, “MRSA (S)”; with S. epidermidis, “S. epidermidis (M)”; with S. pneumoniae, “S. pneumoniae (R)”; in the experiment on C. jejuni it was “C. jejuni (R)”. Also, the “Target(s) (microorganisms bound by the targeting peptide)” value in experiment [1] (peptide binding in aqueous buffers varied by peptide solubility) is “S. epidermidis and P. mirabilis and E. coli and MRSA and S. pneumoniae and C. jeikeium”. Besides, in the experiment on microorganisms, the Activities result is on record as “G B”.

Regarding “PF-610: peptide having multiple activities (VFLKLKTSKIDLASIIFYP; Peptide with targeting and/or antimicrobial activity)”, the “Organism, effect” value in the experiment on E. faecalis was “E. faecalis (D)”; with MRSA, “MRSA (D)”; with S. epidermidis it was “S. epidermidis (C)”; with S. pneumoniae, “S. pneumoniae (D)”; in the experiment with C. jejuni, “C. jejuni (D)”; in the experiment on E. coli it was “E. coli (C)”. The Activities result with microorganisms is “G B”.

As for “PF-615: peptide having multiple activities (FLNRFIFYIFTVKTKSALIKNLFLD; Peptide with targeting and/or antimicrobial activity)”, the “Organism, effect” value in the experiment with E. faecalis was “E. faecalis (D)”; with MRSA, “MRSA (D)”; in the experiment with S. epidermidis, “S. epidermidis (D)”; in the experiment with S. pneumoniae, “S. pneumoniae (D)”; in the experiment on C. jejuni, “C. jejuni (D)”; in the experiment with E. coli, “E. coli (C)”. Also, the Activities entry in the experiment on microorganisms is given as “G B”.

B1: PF-389: peptide having multiple activities (peptide)
chain 1: GLQFKEIAEEFHITTTALQQWHKDNGYPIYNKNNRK
chain 2: GLQFKEIAEEFHITTTALQQWHKDNGYPIYNKNNRK
modifications: Peptide with targeting and/or antimicrobial activity
For the molecule B1, the “Organism, effect” value in the experiment with E. faecalis is listed as “E. faecalis (R)”; with MRSA, “MRSA (C)”; in the experiment on S. epidermidis it was “S. epidermidis (R)”; in the experiment on S. pneumoniae, “S. pneumoniae (D)”; in the experiment with C. jejuni, “C. jejuni (R)”. In addition, the “Target(s)” value in experiment [1] (setting [2]) was “S. epidermidis and C. albicans and MRSA and S. pneumoniae and E. faecalis and C. jeikeium”. For the same molecule, the Activities entry with microorganisms is “G B”.

The values are drawn from patent publication US20110039762A1, “TARGETED ANTIMICROBIAL MOIETIES” (C3 JIAN, INC., priority 2009, published 2011).
